ChEMBL document CHEMBL1155556, “New macrolactins from a marine Bacillus sp. Sc026” (2000)

Experiments:
Format in all cases: functional
Conditions in all cases: read-out: IZ
[1] = system: Staphylococcus aureus; assay: Antibacterial activity against Staphylococcus aureus ATCC 25923 at 100 ug/disk by agar diffusion assay
[2] = system: Bacillus subtilis; assay: Antibacterial activity against Bacillus subtilis ATCC 6633 at 100 ug/disk by agar diffusion assay
[3] = system: Bacillus subtilis; assay: Antibacterial activity against Bacillus subtilis ATCC 6633 at 50 ug/disk by agar diffusion assay
[4] = system: Staphylococcus aureus; assay: Antibacterial activity against Staphylococcus aureus ATCC 25923 at 50 ug/disk by agar diffusion assay

Molecule `C[C@@H]1CCC/C=C/CCC(=O)C[C@@H](O)C/C=C\C=C\[C@@H](O)C/C=C/C=C\C(=O)O1` [MACROLACTIN F] has a zone of inhibition at 100 µg/disc [1] of 28 mm and a zone of inhibition at 100 µg/disc [2] of 8 mm.
`C[C@@H]1CCC/C=C/CCC(=O)C[C@@H](O)C/C=C\C=C\[C@@H](OC(=O)CCC(=O)O)C/C=C/C=C\C(=O)O1` was tested, and the zone of inhibition at 100 µg/disc [1] was 8 mm and the zone of inhibition at 100 µg/disc [2] was 9 mm.
Molecule `C[C@@H]1CCC/C=C/C=C/[C@H](O)C[C@@H](O)C/C=C\C=C\[C@@H](OC(=O)CCC(=O)O)C/C=C/C=C\C(=O)O1` [7-O-SUCCINYL MACROLACTIN A] has a zone of inhibition at 50 µg/disc [3] of 10 mm and a zone of inhibition at 50 µg/disc [4] of 24 mm.
